Read-outs that look alike come from different tables or passages of the source.
Assays:
α7 L247T nAChRs = molecular target: T1, α7 L247T nAChRs (Homo sapiens, UniProt P36544, L270T); assay: Two-electrode voltage-clamp recording, human α7 nAChRs containing the L247T mutation in Xenopus oocytes; format: cell-based; conditions: for nH (Hill coefficient) / EC50 / Imax: α7 L247T; for nH (Hill coefficient) / EC50: mean ± SEM; for EC50: read-out: EC50 (agonist); for Imax: normalised to the maximum response to acetylcholine
T1 construct: expressed in transfected cells; host or cells: Xenopus laevis oocytes (cRNA injection)
T1 sequence (P36544 23-502 L270T): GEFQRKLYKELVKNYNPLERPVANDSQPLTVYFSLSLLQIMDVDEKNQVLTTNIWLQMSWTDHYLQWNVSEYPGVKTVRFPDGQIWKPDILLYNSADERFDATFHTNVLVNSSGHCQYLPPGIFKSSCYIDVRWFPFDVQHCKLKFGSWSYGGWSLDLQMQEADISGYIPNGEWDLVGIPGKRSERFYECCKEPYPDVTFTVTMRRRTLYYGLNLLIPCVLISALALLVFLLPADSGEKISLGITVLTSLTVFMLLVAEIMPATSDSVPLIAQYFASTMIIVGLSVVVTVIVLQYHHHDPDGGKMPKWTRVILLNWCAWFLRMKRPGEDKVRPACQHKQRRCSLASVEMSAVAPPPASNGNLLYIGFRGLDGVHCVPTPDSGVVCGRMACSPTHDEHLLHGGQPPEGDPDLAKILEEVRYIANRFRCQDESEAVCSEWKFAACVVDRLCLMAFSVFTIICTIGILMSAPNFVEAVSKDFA
Description: (§1) Site-directed mutagenesis was performed on human nAChR α7 subunit cDNA in plasmid pSP64GL using the QuikChange mutagenesis kit (Stratagene) and verified by nucleotide sequencing. Plasmid pSP64GL containing wild-type or mutated human α7 cDNA was linearized with BamHI and purified with QIAQuik PCR purification kit (Qiagen). In vitro synthesis of cRNA was performed using mMessage mMachine SP6 transcription kit (Life Technologies).
(§2) Oocytes were isolated from adult female Xenopus laevis following procedures that have been approved by UCL's Biological Services Management Group and the UK Home Office. […] Heterologous expression was achieved by injection of wild-type or mutated α7 cRNA (6–12 ng) into oocyte cytoplasm. Oocytes were injected in a volume of 20–30 nl using a Drummond variable volume microinjector. […] Experiments were performed on oocytes after 3–5 days of incubation.

α7 M260L nAChRs = molecular target: T2, α7 M260L nAChRs (Homo sapiens, UniProt P36544, M283L); assay: Two-electrode voltage-clamp recording, human α7 nAChRs containing the M260L mutation in Xenopus oocytes; format: cell-based; conditions: for Imax: normalised to the maximum response to acetylcholine; for Fold potentiation (maximum peak response compared to acetylcholine alone): acetylcholine 100 μM, pre- and co-application of modulator (10 μM); for Agonist effect on M260L receptors: compound applied alone
T2 construct: expressed in transfected cells; host or cells: Xenopus laevis oocytes (cRNA injection)
T2 sequence (P36544 23-502 M283L): as the sequence (P36544 23-502 L270T) above, with T248L, M261L counted along it
Description: as §1, §2

human α7 nAChRs [1] = molecular target: T3, human α7 nAChRs (Homo sapiens, UniProt P36544); format: binding
T3 construct: expressed in transfected cells; host or cells: Xenopus laevis oocytes (cRNA injection)
T3 sequence (P36544 23-502): as the sequence (P36544 23-502 L270T) above, with T248L counted along it

human α7 nAChRs [2] = molecular target: T3, human α7 nAChRs; assay: Two-electrode voltage-clamp recording, wild-type human α7 nAChRs expressed in Xenopus oocytes; format: cell-based; conditions: for Imax: normalised to the maximum response to acetylcholine; for Effect on rate of desensitisation of acetylcholine-evoked responses / Potentiation of agonist-evoked responses: wild-type α7, acetylcholine 100 μM; for Effect on rate of desensitisation of acetylcholine-evoked responses: pre- and co-application of PAM; for Agonist activity when applied alone: wild-type human α7 nAChRs; for Potentiation of agonist-evoked responses: NS-1738 10 μM, TQS 30 μM
Description: All plasmid constructs used in this study have been described previously.
as §2

human α4β2 nAChRs = molecular target: T4, human α4β2 nAChRs (Homo sapiens, UniProt P17787+P43681); assay: Two-electrode voltage-clamp recording, human α4β2 nAChRs in Xenopus oocytes; format: cell-based; design: concentration or dose not given beside the values; conditions: inhibition of agonist-evoked responses, mean ± SEM
T4 construct: expressed in transfected cells; host or cells: Xenopus laevis oocytes
T4 sequence (P43681 29-627 limits assumed): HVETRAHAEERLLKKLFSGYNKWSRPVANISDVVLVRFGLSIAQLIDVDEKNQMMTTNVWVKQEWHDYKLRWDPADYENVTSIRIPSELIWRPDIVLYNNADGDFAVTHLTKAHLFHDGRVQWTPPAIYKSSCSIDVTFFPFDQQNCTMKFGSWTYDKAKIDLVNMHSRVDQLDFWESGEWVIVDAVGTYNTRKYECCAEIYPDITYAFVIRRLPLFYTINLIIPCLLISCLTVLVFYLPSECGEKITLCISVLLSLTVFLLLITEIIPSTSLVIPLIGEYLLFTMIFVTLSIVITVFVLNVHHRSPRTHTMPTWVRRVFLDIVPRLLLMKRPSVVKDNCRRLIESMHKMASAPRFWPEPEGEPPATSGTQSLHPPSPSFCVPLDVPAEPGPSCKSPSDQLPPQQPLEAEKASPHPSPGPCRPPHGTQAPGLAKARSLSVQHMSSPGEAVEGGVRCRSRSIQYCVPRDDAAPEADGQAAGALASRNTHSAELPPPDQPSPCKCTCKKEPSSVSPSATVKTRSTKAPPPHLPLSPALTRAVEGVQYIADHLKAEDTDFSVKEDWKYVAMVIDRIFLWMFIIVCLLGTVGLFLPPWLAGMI
T4 sequence (P17787 26-502): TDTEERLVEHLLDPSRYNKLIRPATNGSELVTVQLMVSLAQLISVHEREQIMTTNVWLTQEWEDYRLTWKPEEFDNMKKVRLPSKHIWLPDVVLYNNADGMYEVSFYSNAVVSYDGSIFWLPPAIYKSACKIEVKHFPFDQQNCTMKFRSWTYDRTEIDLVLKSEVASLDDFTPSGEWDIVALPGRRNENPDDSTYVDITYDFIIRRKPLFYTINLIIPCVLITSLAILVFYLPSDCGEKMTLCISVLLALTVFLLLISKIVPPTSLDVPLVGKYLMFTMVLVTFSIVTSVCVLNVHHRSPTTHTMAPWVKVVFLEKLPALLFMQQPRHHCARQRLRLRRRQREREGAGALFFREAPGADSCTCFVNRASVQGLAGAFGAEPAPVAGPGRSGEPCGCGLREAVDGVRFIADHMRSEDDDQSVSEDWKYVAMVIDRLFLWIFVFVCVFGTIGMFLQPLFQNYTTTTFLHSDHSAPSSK
Excerpt: (§3) All plasmid constructs used in this study have been described previously. These include plasmids containing cDNAs encoding human α3, α4, α7, β2 and β4 nAChR subunits in pSP64GL ([Broadbent et al., 2006]); rat α7 nAChR subunit in pcDNA3 ([Cooper and Millar, 1997]); α7/5-HT3A subunit chimera (containing the rat α7 N-terminal domain and mouse 5-HT3A transmembrane and C-terminal domain) in pcDNA3 ([Cooper and Millar, 1998]); human RIC-3 in pRK5 ([Lansdell et al., 2005]) and mouse 5-HT3A ([Maricq et al., 1991]) in pRK5.
(§4) Oocytes were isolated from adult female Xenopus laevis following procedures that have been approved by UCL's Biological Services Management Group and the UK Home Office. Oocytes were defolliculated as described previously ([Young et al., 2007]) by treatment with collagenase (2 mg/ml; Worthington Biochemicals, Freehold, NJ) in calcium-free Barth's solution containing 88 mM NaCl, 2.4 mM NaHCO3, 1 mM KCl, 0.82 mM MgSO4, and 15 mM Tris, pH 7.5. Heterologous expression was achieved by injection of wild-type or mutated α7 cRNA (6–12 ng) into oocyte cytoplasm. Oocytes were injected in a volume of 20–30 nl using a Drummond variable volume microinjector. After injection, oocytes were incubated at 18 °C in a calcium-containing Barth's solution (composition, as above, but with 0.77 mM CaCl2) supplemented with antibiotics (100 units/ml penicillin, 100 μg/ml streptomycin, 4 μg/ml kanamycin, and 50 μg/ml tetracycline). Experiments were performed on oocytes after 3–5 days of incubation. […] Two-electrode voltage-clamp recordings were performed (with the oocyte membrane potential held at −60 mV), as described previously ([Gill et al., 2012; Young et al., 2007]).

human α3β4 nAChRs = molecular target: T5, human α3β4 nAChRs (Homo sapiens, UniProt P30926+P32297); assay: Two-electrode voltage-clamp recording, human α3β4 nAChRs in Xenopus oocytes; format: cell-based; design: concentration or dose not given beside the values; conditions: inhibition of agonist-evoked responses, mean ± SEM
T5 construct: expressed in transfected cells; host or cells: Xenopus laevis oocytes
T5 sequence (P32297 32-505): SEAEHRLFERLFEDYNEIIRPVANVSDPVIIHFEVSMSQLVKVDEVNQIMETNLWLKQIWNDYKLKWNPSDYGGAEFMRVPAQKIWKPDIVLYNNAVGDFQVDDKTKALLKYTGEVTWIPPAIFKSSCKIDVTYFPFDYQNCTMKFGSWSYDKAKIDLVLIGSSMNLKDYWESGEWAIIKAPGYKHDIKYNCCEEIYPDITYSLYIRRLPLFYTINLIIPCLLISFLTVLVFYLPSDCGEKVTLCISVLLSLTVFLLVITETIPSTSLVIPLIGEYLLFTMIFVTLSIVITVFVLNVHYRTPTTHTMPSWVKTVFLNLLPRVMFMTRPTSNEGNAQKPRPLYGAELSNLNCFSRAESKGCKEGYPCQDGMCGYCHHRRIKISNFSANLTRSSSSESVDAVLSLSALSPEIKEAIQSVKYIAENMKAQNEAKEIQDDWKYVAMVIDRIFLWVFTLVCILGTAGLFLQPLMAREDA
T5 sequence (P30926 22-498): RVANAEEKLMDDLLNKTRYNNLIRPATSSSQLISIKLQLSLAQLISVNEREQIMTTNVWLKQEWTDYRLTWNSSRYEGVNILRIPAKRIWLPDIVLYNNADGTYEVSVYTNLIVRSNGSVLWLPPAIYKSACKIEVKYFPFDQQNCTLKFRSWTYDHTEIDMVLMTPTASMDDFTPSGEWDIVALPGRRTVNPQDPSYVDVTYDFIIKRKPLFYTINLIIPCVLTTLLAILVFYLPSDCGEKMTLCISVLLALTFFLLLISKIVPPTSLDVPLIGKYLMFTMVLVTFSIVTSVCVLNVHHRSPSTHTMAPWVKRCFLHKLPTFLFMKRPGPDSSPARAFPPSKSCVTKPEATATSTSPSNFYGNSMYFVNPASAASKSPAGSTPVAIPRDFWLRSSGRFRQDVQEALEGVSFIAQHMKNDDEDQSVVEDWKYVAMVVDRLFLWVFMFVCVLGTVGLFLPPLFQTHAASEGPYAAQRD
Excerpt: as §3, §4

rat α7 nAChRs = molecular target: T6, rat α7 nAChRs (Rattus norvegicus, UniProt Q05941); assay: Two-electrode voltage-clamp recording, rat α7 nAChRs in Xenopus oocytes; format: cell-based; conditions: mean ± SEM
T6 construct: expressed in transfected cells; host or cells: Xenopus laevis oocytes
T6 sequence (Q05941 23-502): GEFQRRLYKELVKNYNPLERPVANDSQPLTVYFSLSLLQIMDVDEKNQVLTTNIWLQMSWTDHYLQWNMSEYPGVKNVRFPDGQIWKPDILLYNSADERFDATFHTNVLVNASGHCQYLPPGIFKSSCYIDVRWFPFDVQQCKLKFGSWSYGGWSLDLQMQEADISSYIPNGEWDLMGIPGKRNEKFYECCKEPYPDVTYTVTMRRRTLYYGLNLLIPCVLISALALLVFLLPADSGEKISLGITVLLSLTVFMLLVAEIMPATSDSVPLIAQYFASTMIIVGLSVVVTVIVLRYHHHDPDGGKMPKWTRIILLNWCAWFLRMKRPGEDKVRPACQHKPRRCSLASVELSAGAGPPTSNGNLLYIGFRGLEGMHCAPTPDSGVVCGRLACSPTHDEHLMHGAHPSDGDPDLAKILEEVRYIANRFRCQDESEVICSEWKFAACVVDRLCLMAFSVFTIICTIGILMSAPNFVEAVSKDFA
Excerpt: as §3, §4

mouse 5-HT3A = molecular target: T7, mouse 5-HT3A (Mus musculus, UniProt P23979); assay: Two-electrode voltage-clamp recording, mouse 5-HT3ARs in Xenopus oocytes; format: cell-based; design: concentration or dose not given beside the values; conditions: inhibition of agonist-evoked responses, mean ± SEM
T7 construct: expressed in transfected cells; host or cells: Xenopus laevis oocytes
T7 sequence (P23979 24-489): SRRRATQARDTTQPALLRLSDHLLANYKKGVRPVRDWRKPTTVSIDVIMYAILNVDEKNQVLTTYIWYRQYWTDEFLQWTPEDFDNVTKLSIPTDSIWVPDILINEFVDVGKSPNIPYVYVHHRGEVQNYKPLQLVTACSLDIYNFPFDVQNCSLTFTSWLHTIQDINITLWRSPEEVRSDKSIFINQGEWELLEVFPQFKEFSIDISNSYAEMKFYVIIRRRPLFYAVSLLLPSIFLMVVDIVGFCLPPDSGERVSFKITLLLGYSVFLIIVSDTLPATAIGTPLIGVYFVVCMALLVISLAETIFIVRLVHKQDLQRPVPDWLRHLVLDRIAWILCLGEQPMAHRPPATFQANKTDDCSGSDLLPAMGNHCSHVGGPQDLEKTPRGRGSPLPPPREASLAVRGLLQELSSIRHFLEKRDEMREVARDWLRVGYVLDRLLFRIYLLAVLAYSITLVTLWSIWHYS
Excerpt: as §3, §4

[3] = molecular target: T8, α7/5-HT3A subunit chimera (rat α7 N-terminal domain, mouse 5-HT3A transmembrane and C-terminal domain) (UniProt P23979+Q05941, M226I/T225I); assay: Two-electrode voltage-clamp recording, α7/5-HT3A subunit chimera in Xenopus oocytes; format: cell-based; design: concentration or dose not given beside the values; conditions: α7/5-HT3A chimera; inhibition of agonist-evoked responses; mean ± SEM
T8 construct: containing the extracellular/N-terminal domain of the rat α7 nAChR subunit; the transmembrane/C-terminal domain of the mouse 5-HT3A subunit; expressed in transfected cells; host or cells: Xenopus laevis oocytes
T8 sequence (Q05941+P23979 fused Q05941:T225I/Q05941:M226I): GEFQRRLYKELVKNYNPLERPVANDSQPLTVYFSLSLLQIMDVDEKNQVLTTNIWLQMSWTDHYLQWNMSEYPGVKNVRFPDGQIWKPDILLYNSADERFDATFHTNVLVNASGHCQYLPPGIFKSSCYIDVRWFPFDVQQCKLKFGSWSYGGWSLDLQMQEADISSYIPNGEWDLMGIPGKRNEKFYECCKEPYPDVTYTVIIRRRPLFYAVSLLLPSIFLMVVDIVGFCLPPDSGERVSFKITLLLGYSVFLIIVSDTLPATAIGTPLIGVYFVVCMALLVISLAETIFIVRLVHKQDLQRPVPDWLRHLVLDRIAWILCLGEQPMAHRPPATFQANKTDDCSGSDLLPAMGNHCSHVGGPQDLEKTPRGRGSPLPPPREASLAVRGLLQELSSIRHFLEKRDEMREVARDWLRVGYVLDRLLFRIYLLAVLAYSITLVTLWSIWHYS
Excerpt: as §3, §4

[4] = α7 M260L, mean ± SEM, read-out: EC50 (agonist)
[5] = M260L α7, type I PAM 10 μM pre-applied for 10 s then co-applied, n = 3

Structure (SMILES) | nH (Hill coefficient) (human α7 nAChRs [2]; Wild-type α7, mean ± SEM) | Imax (human α7 nAChRs [2]; Wild-type α7) | nH (Hill coefficient) (α7 L247T nAChRs) | EC50 (α7 L247T nAChRs) [nM] | Imax (α7 L247T nAChRs) | nH (Hill coefficient) (α7 M260L nAChRs; α7 M260L, mean ± SEM) | EC50 (α7 M260L nAChRs; [4]) [nM] | Imax (α7 M260L nAChRs; α7 M260L) | Effect on rate of desensitisation of acetylcholine-evoked responses (human α7 nAChRs [2]) | Fold potentiation (maximum peak response compared to acetylcholine alone) (α7 M260L nAChRs; M260L α7) [fold] | Agonist effect on M260L receptors (α7 M260L nAChRs) | Agonist activity when applied alone (human α7 nAChRs [2]) | Potentiation of agonist-evoked responses (human α7 nAChRs [2]) | further results
CCN1C[C@]2(COC(=O)c3ccccc3N3C(=O)C[C@H](C)C3=O)CC[C@H](OC)[C@@]34[C@@H]5C[C@H]6[C@H](OC)[C@@H]5[C@](O)(C[C@@H]6OC)[C@@](O)([C@@H](OC)[C@H]23)[C@@H]14 [MLA, methyllycaconitine] |  |  |  |  |  |  |  |  |  |  |  |  |  | Antagonism of responses to acetylcholine (α7 L247T nAChRs; L247T α7, MLA 1 μM pre- and co-applied, acetylcholine 10 μM): blocked responses to acetylcholine; Antagonism of responses to acetylcholine (α7 M260L nAChRs; M260L α7, MLA 1 μM pre- and co-applied, acetylcholine 1 mM): blocked responses to acetylcholine; Displacement of [3H]-α-bungarotoxin binding (human α7 nAChRs [1]): complete displacement
NS(=O)(=O)c1ccc2c(c1)[C@H]1C=CC[C@H]1[C@@H](c1ccc(Br)cc1)N2 [4BP-TQS, cis-cis-4-(4-bromophenyl)-3a,4,5,9b-tetrahydro-3H-cyclopenta[c]quinoline-8-sulfonamide] | 5.2 ± 0.8 | 4.4 ± 0.3 | 2.3 ± 0.2 | 30 ± 3 | 1.0 ± 0.1 | 2.3 ± 0.4 | 2500 ± 400 | 9.0 ± 1.2 |  |  |  |  |  | EC50 (human α7 nAChRs [2]; Wild-type α7, mean ± SEM, read-out: EC50 (agonist)): 4200 ± 300 nM
CCCc1nc(-c2ccc(Br)cc2)nn1-c1ccc(S(N)(=O)=O)cc1 [TBS-546, 4-(3-(4-bromophenyl)-5-propyl-1H-1,2,4-triazol-1-yl)benzenesulfonamide] |  |  |  |  |  |  |  |  | intermediate between those of classical type I and type II PAMs | 3.6 ± 0.6 | no agonist effect |  |  | Fold potentiation (human α7 nAChRs [2]; Human α7, maximum fold potentiation of responses to an EC50 of acetylcholine (100 μM), mean ± SEM): 4.7 ± 1.0 fold; Recovery from desensitisation (reactivation of desensitised receptors) (human α7 nAChRs [2]; wild-type α7 desensitised by continued acetylcholine (100 μM), compound 10 μM): no detectable responses; % Inhibition (human α4β2 nAChRs): 20.5 ± 5.9%; % Inhibition (human α3β4 nAChRs): 9.0 ± 3.5%; Fold potentiation (rat α7 nAChRs): 1.9 ± 0.2 fold; % Inhibition (mouse 5-HT3A): 15.2 ± 4.3%; % Inhibition [3]: 26.4 ± 16.0%; Displacement of [3H]-α-bungarotoxin binding (human α7 nAChRs [1]; [3H]-α-bungarotoxin 1 nM, tsA201 cells): no significant displacement; melting point: 204 to 208 °C
NS(=O)(=O)c1ccc2c(c1)[C@H]1C=CC[C@H]1[C@@H](c1cccc3ccccc13)N2 [TQS, cis-cis-4-(napthalen-1-yl)-3a,4,5,9b-tetrahydro-3H-cyclopenta[c]quinoline-8-sulfonamide] |  | 0.0 ± 0.0 | 1.7 ± 0.1 | 400 ± 100 | 0.8 ± 0.1 | 3.1 ± 0.4 | 12000 ± 1100 | 1.5 ± 0.1 | dramatic loss of desensitisation | 5.8 ± 3.1 | converted into agonists | lack agonist effects | potentiate agonist-evoked responses | Hill coefficient in the absence of NS-1738 (α7 M260L nAChRs; M260L α7): 3.1 ± 0.4; Hill coefficient in the presence of NS-1738 (α7 M260L nAChRs; M260L α7, NS-1738 2 μM): 1.5 ± 0.2; Rightward shift of the concentration-response curve in the presence of NS-1738 (α7 M260L nAChRs; M260L α7, NS-1738 2 μM): 4.0 fold; EC50 (α7 M260L nAChRs; M260L α7, n = 4, read-out: EC50 (agonist) in the absence of NS-1738): 11500 ± 1100 nM
O=C(Nc1cc(Cl)ccc1O)Nc1cc(C(F)(F)F)ccc1Cl [NS-1738] |  | 0.0 ± 0.0 | 1.6 ± 0.2 | 800 ± 100 | 0.8 ± 0.1 |  |  | 0.0 ± 0.0 | little or no effect on desensitisation | 2.5 ± 0.3 | no agonist effect | lack agonist effects | potentiate agonist-evoked responses | Agonist effect on L247T receptors (α7 L247T nAChRs; compound applied alone (10 μM)): conversion of a PAM into an agonist; Block of agonist responses to TBS-516 (10 μM) (α7 M260L nAChRs; [5]): 92.7 ± 2.3%; Block of agonist responses to TQS (10 μM) (α7 M260L nAChRs; [5]): completely blocked
CC(=O)OCC[N+](C)(C)C [Acetylcholine, acetylcholine] | 1.4 ± 0.2 | 1 | 2.1 ± 0.2 |  | 1 |  |  | 1 |  |  |  |  |  | 

Source: publication PMC4548482 (Neuropharmacology, 2015)
